What is called ED50 is the dose that gives a 50% effect, or the effect in half of the subjects.

The source of these data is US6251903A, “Alkyl, azido, alkoxy, and fluoro-substituted and fused quinoxalinediones and the use thereof as glycine receptor antagonist” (priority 2000, dated 2001).

In data set [1] the test system is glycine binding site of the NMDA receptor. The conditions noted are these: literature, cited from earlier work.
The conditions of data set [2]: cited from earlier work.
The next data set deals with animals. The conditions noted are these: literature; cited from earlier work.
In data set [3] the test system is non-NMDA glutamate receptors. As to conditions: literature, cited from earlier work.
For a further data set, the system named is neurons. As to conditions: literature, cited from earlier work.
A further data set addresses glycine binding site (Rattus norvegicus, UniProt P35439). In words: affinity for the glycine binding site / glycine/NMDA receptor (Ki; method not stated). As to conditions: for times less active than 6,7-dichloro-5-nitro-1,4-dihydroquinoxaline-2,3-dione at the glycine/NMDA receptor: from Ki. The source says:
The binding affinities of quinoxaline-2,3-diones at NMDA receptor glycine sites also were estimated by electrophysiological assays with either cloned rat NMDA receptors expressed in Xenopus oocytes, or non-NMDA receptors expressed in oocytes by whole rat brain poly(A)^+ RNA. […] For NMDA receptors Ki values were approximated by averaging values at three subtype combinations (NR1A/NR2A, NR1A/NR2B, and NR1A/NR2C).

A short description of data set [4]: penetration of the blood/brain barrier, access to the central nervous system. Format: in vivo. As to conditions: inferred from Ki and MES ED50.
A further data set relates to mice. In words: anticonvulsant activity in maximum electroshock seizure (MES) experiments in mice. The conditions noted are these: for ED50 / ED100: Mus musculus; for ED100 / ED50 (MES) / IV peak of action: Table IV. Format: in vivo, male Swiss/Webster mice. On the procedure:
The seizure stimulus parameters were: 50 mA, 60 Hz, rectangular pulse, width 0.8 msec, duration 200 msec. Tonic hind limb extension observed after application of the electrical stimulus was recorded as occurrence of seizure. The drug was applied i.v. as an aqueous Tris (Tromethamine) solution.

The test system of the next data set is DBA-2 mice. In words: audiogenic seizure model in DBA-2 mice. Type of data set: in vivo. The conditions noted are these: Mus musculus, ip, 0.5 h; i.p. injection. The source says: The anticonvulsant activity of the glycine and excitatory amino acid antagonists can be assessed in the audiogenic seizure model in DBA-2 mice as follows. DBA-2 mice can be obtained from Jackson Laboratories, Bar Harbor, Maine. These mice at an age of <27 days develop a tonic seizure within 5-10 seconds and die when they are exposed to a sound of 14 kHz (sinus wave) at 110 dB (Lonsdale, D., Dev. Pharmacol. Ther. 4:28 (1982)). […] 21 day old DBA-2 mice are used for all experiments. Compounds are given intraperitoneally in either saline, DMSO, or polyethyleneglycol-400. Appropriate solvent controls are included in each experiment. Dose response curves are constructed by giving increasing doses of drug from 1 mg/kg to 100 mg/kg. Each dose group (or solvent control) consists of at least six animals.

Setting [5] is: listed as 6,7-dinitroquinoxaline-2,3-dione.
The mark [6] stands for this setting: listed as 6-cyano-7-nitroquinoxaline-2,3-dione.
[7] abbreviates: read-out: Ki, affinity for the glycine/NMDA receptor.
[8] abbreviates: iv, Table III, i.v. injection, read-out: ED50 (MES).
The mark [9] stands for this setting: route not stated, read-out: ED50 as an anticonvulsant in the MES experiment in mice.

Entries after “also recorded” stand apart in the source; their conditions may differ. Like-named read-outs stand apart in the source and are kept apart here.

Take `NC1CCN(O)C1=O` (racemic) [HA-966]: the “glycine site antagonism or affinity (words)” value in data set [1] is listed as “partial agonist with only micromolar affinity for the glycine binding site”. For the same compound, the “penetration of the blood/brain barrier (words)” value in data set [2] (literature) is “sufficiently penetrates the blood/brain barrier”.

With `O=c1[nH]c2cc([N+](=O)[O-])c([N+](=O)[O-])cc2[nH]c1=O` [6,7-dinitro-1,4-dihydroquinoxaline-2,3-dione], the entries for the “glycine site antagonism or affinity (words)” value in data set [1] and in data set [1] (setting [5]) were “can antagonize the responses to L-glutamate by interacting with the glycine recognition sites; also recorded: inhibit [^3 H] glycine binding to the strychnine-insensitive glycine binding sites” and “glycine antagonists”, respectively. Moreover, the “in vivo activity” value in the data set on animals was “antagonize responses mediated by NMDA-associated glycine recognition sites in vivo”. Besides, the “antagonism at kainate / AMPA / non-NMDA receptors” value in data set [3] is given as “more potent antagonists of kainate than glycine; also recorded: potent non-NMDA glutamate receptor antagonists”; in data set [3] (setting [5]), “AMPA”. Moreover, the “neuroprotective efficacy” value is recorded as “neuroprotective activity” in the data set with neurons and “neuroprotective in vitro” with neurons (setting [5]). The “penetration of the blood/brain barrier (words)” value in data set [2] (literature, listed as DNQX) is “poor access to the central nervous system”.

Take `NS(=O)(=O)c1cccc2c1c([N+](=O)[O-])cc1nc(O)c(O)nc12` [2,3-dihydroxy-6-nitro-7-sulfamoyl-benzo (F) quinoxaline]: in data set [3], the “antagonism at kainate / AMPA / non-NMDA receptors” value is on record as “AMPA selective”. Besides, the “neuroprotective efficacy” value with neurons is “neuroprotective in cerebral ischemia models”.

Consider `O=c1[nH]c2cc([N+](=O)[O-])cc([N+](=O)[O-])c2[nH]c1=O` [5,7-dinitro-1,4-dihydroquinoxaline-2,3-dione], for which the “glycine site antagonism or affinity (words)” value in data set [1] is “potent-antagonist of the strychnine insensitive glycine receptor”. In addition, the “in vivo activity” value in the data set with animals is reported as “has anticonvulsant properties”. Besides, in data set [2] (literature), the “penetration of the blood/brain barrier (words)” value is reported as “poor access to the central nervous system”.

Consider `O=C(O)[C@@H]1C[C@H](CP(=O)(O)O)CCN1` [CGS 19755], for which the “neuroprotective efficacy” value with neurons is on record as “have neuroprotective efficacy”.

Regarding `CNC1(c2ccccc2Cl)CCCCC1=O` (stereo not drawn) [ketamine], in the data set on neurons, the “neuroprotective efficacy” value is “have neuroprotective efficacy both in vitro and in vivo”.

Consider `O=C(O)C1CC2CC(CP(=O)(O)O)CCC2CN1` (stereo not drawn) [LY274614], for which the “neuroprotective efficacy” value in the data set with neurons is “have neuroprotective efficacy”.

In the case of `N#Cc1cc2nc(O)c(O)nc2cc1[N+](=O)[O-]` [6-cyano-7-nitro-1,4-dihydroquinoxaline-2,3-dione], the figures for the “glycine site antagonism or affinity (words)” value in data set [1] and in data set [1] (setting [6]) were “can antagonize the responses to L-glutamate by interacting with the glycine recognition sites; also recorded: inhibit [^3 H] glycine binding to the strychnine-insensitive glycine binding sites; also recorded: antagonizes NMDA receptor-mediated responses by a competitive interaction of the glycine binding site” and “glycine antagonists”, respectively. Further, in the data set on animals, the “in vivo activity” value is “antagonize responses mediated by NMDA-associated glycine recognition sites in vivo”. Besides, the “antagonism at kainate / AMPA / non-NMDA receptors” value in [3] is listed as “more potent antagonists of kainate than glycine”; in [3] (setting [6]), “AMPA”; in [3] (listed as 7-cyano-6-nitro-1,4-dihydroquinoxaline-2,3-dione), “potent non-NMDA glutamate receptor antagonists”. For the same compound, the “neuroprotective efficacy” value with neurons is “neuroprotective in vitro”. Moreover, the “penetration of the blood/brain barrier (words)” value in [2] (literature) was “incapable of crossing the blood/brain barrier after i.p. administration”; in [2] (literature, listed as CNQX) it was “poor access to the central nervous system”; in data set [2] (literature, listed as cyano-7-nitro-1,4-dihydroquinoxaline-2,3-dione) it was “poor access to the central nervous system”.

For `COc1ccc2c(c1)[C@]13CCCC[C@@H]1[C@H](C2)N(C)CC3` [dextromethorphan], the “neuroprotective efficacy” value in the data set with neurons is “have neuroprotective efficacy both in vitro and in vivo”.

In the case of `O=c1[nH]c2cc(F)c(F)c([N+](=O)[O-])c2[nH]c1=O` [NO2 F F H, 6,7-Difluoro-5-nitro-1,4-dihydro-2,3-quinoxalinedione], the “times less active than 6,7-dichloro-5-nitro-1,4-dihydroquinoxaline-2,3-dione at the glycine/NMDA receptor” value on glycine binding site is “more than 20 times”. Moreover, the Ki on glycine binding site (setting [7]) was found to be 87 nM. In addition, the “times better in crossing the blood brain barrier than 6,7-dichloro-5-nitro-1,4-dihydroquinoxaline-2,3-dione” value in data set [4] is recorded as “about 100 times”. Besides, in the data set with mice (setting [8]), the median effective dose (ED50) lay within 0.7 to 0.8 mg/kg. For the same compound, in the data set with mice (i.v.), the ED100 came out at 2.5 mg/kg, the “ED50 (MES)” value was in the range of 0.7 to 0.8 mg/kg and the “IV peak of action” value is on record as 1 min. Moreover, in the data set on mice (setting [9]), the ED50 lay in the range of 0.7 to 0.8 mg/kg. Further, the “% protection after 60 min.” value with mice (i.v., 2.5 mg/kg) is recorded as 0%. In addition, the “protection against MES after 60 min.” value in the data set on mice (i.v., after 60 min) is listed as “no more protection was observed”.

On to `O=C(O)c1cc2ccccc2[nH]1` [indole-2-carboxylic acid], for which the “glycine site antagonism or affinity (words)” value in data set [1] is “relatively high receptor binding affinity in vitro”. Besides, the “penetration of the blood/brain barrier (words)” value in data set [2] (literature) was “cannot penetrate the blood/brain barrier”.

As for `O=c1[nH]c2c(F)c(Cl)c(F)c([N+](=O)[O-])c2[nH]c1=O` [NO2 F Cl F, 7-Chloro-6,8-difluoro-5-nitro-1,4-dihydroquinoxaline-2,3-dione], the “times less active than 6,7-dichloro-5-nitro-1,4-dihydroquinoxaline-2,3-dione at the glycine/NMDA receptor” value at glycine binding site is listed as “about 50 times”. Further, the Ki on glycine binding site (setting [7]) came out at 170 nM. In data set [4], the “times better in crossing the blood brain barrier than 6,7-dichloro-5-nitro-1,4-dihydroquinoxaline-2,3-dione” value is recorded as “about 100 times”. For the same compound, the ED50 in the data set with mice (setting [8]) is 2 to 3 mg/kg. For the same compound, in the data set with mice (i.v.), the ED100 was 5 mg/kg, the “ED50 (MES)” value lay within 2 to 3 mg/kg and the “IV peak of action” value was in the range of 2 to 5 min. Also, in the data set on mice (setting [9]), the median effective dose (ED50) lay within 2 to 3 mg/kg. For the same compound, in the data set on mice (i.v., 5 mg/kg), the “% protection after 60 min.” value came out at 50%.

In the case of `O=c1[nH]c2cc(F)c(F)c(Br)c2[nH]c1=O` [Br F F H], in the data set on DBA-2 mice, the ED50 worked out at 30 mg/kg. In addition, the Ki at glycine binding site (Table III, read-out: Ki) was found to be 2300 nM.

With `O=C(O)c1cc(O)c2c(Cl)cc(Cl)cc2n1` [5,7-dichlorokynurenic acid], the “glycine site antagonism or affinity (words)” value in data set [1] is “relatively high receptor binding affinity in vitro”. In addition, in data set [2] (in vivo), the “penetration of the blood/brain barrier (words)” value is “cannot penetrate the blood/brain barrier”.
